Laboratory results from article PMC8744835, “Sterically Hindered Quaternary Phosphonium Salts (QPSs): Antimicrobial Activity and Hemolytic and Cytotoxic Properties” (International Journal of Molecular Sciences, 2021).
Values after ≈ are worked out from the molar mass of the structure shown.

Legend:
[1] = system: Staphylococcus aureus ATCC 6538P FDA 209P; test: Antimicrobial activity, serial dilution technique in Mueller–Hinton Broth 2; type: cell-based; settings: average of three ± SD, - means non-active; for MIC: read-out: Minimum Inhibitory Concentration (MIC), Sa
Procedure: (§1) The synthesized compounds were tested for antimicrobial activity against a number of Gram-positive bacteria, Staphylococcus aureus (Sa), Bacillus cereus (Bc) and Enterococcus faecalis (Ef), and Gram-negative bacteria, Escherichia coli (Ec) and Pseudomonas aeruginosa (Pa), including the methicillin-resistant strains S. aureus MRSA-1 (resistant to fluoroquinolones and beta-lactams) and MRSA-2 (resistant to beta-lactams). The methicillin-resistant strains S. aureus were transferred by the Republican Clinical Hospital of the Republic of Tatarstan (Kazan). The fungicidal activity against Candida albicans (Ca) and Trichophyton mentagrophytes var. gypseum (Tm) was studied. These pathogens were chosen because they are the most widespread in the food industry and the healthcare system.
(§2) The antimicrobial activity of the QPSs was determined using the serial dilution technique in Mueller–Hinton Broth 2. The cultures used for testing included the Gram-positive bacteria Staphylococcus aureus ATCC 6538P FDA 209P, Enterococcus faecalis ATCC 2921 and Bacillus cereus ATCC 10702 NCTC 8035, the Gram-negative bacteria Escherichia coli ATCC 25922 and Pseudomonas aeruginosa ATCC 9027, and the fungi Trichophyton mentagrophytes var. gypseum 1773 and Candida albicans ATCC 10231; methicillin-resistant strains of S. aureus MRSA were obtained from hospital patients with chronic tonsillitis (MRSA-1) and sinusitis (MRSA-2) in the Republican Clinical Hospital (Kazan, Russia). […] The bacterial load was 3.0 × 10^5 cfu/mL. The results were recorded every 24 h for 5 days. The cultures were incubated at 37 °C. The experiment was repeated three times. […] The minimum inhibitory concentration (MIC) was defined as the minimum concentration of a compound that inhibits the growth of the corresponding test micro-organism. The growth of bacteria as well as the absence of growth due to the bacteriostatic action of a compound was recorded.

[2] = system: Pseudomonas aeruginosa ATCC 9027; test: as above; type: cell-based; settings: average of three ± SD, - means non-active
Procedure: as §1, §2

[3] = system: Enterococcus faecalis ATCC 2921; test: as above; type: cell-based; settings: average of three ± SD, - means non-active; for MIC / MBC: Enterococcus faecalis, ATCC2921, Ef; for MIC: read-out: Minimum Inhibitory Concentration (MIC), Ef; for MBC: read-out: Minimum Bactericidal and Fungicidal Concentration (MBC, MFC), Ef
Procedure: as §1, §2

[4] = system: Bacillus cereus ATCC 10702 NCTC 8035; test: as above; type: cell-based; settings: average of three ± SD, - means non-active; for MIC / MBC: Bacillus cereus, Bc; for MIC: read-out: Minimum Inhibitory Concentration (MIC), Bc; for MBC: read-out: Minimum Bactericidal and Fungicidal Concentration (MBC, MFC), Bc
Procedure: as §1, §2

[5] = system: methicillin-resistant S. aureus MRSA-2; test: as above; type: cell-based, Staphylococcus aureus; settings: - means non-active; for MIC / Minimum Inhibitory Concentration (MIC), MRSA-2: MRSA-2 (resistant to beta-lactams); for MIC: read-out: Minimum Inhibitory Concentration (MIC), MRSA-2
Procedure: as §1, §2

[6] = system: methicillin-resistant S. aureus MRSA-1; test: as above; type: cell-based, Staphylococcus aureus; settings: - means non-active; for MIC / Minimum Inhibitory Concentration (MIC), MRSA-1: MRSA-1 (resistant to fluoroquinolones and beta-lactams); for MIC: read-out: Minimum Inhibitory Concentration (MIC), MRSA-1
Procedure: as §1, §2

[7] = system: Trichophyton mentagrophytes var. gypseum 1773; test: Fungicidal activity, serial dilution technique; type: cell-based; settings: for Minimum Bactericidal and Fungicidal Concentration (MBC, MFC), Tm / Minimum Inhibitory Concentration (MIC), Tm: average of three ± SD, - means non-active
Procedure: as §1
(§3) The antimicrobial activity of the QPSs was determined using the serial dilution technique in Mueller–Hinton Broth 2. The cultures used for testing included the Gram-positive bacteria Staphylococcus aureus ATCC 6538P FDA 209P, Enterococcus faecalis ATCC 2921 and Bacillus cereus ATCC 10702 NCTC 8035, the Gram-negative bacteria Escherichia coli ATCC 25922 and Pseudomonas aeruginosa ATCC 9027, and the fungi Trichophyton mentagrophytes var. gypseum 1773 and Candida albicans ATCC 10231; methicillin-resistant strains of S. aureus MRSA were obtained from hospital patients with chronic tonsillitis (MRSA-1) and sinusitis (MRSA-2) in the Republican Clinical Hospital (Kazan, Russia). Ciprofloxacin and ketoconazole were purchased from Sigma-Aldrich. The bacterial load was 3.0 × 10^5 cfu/mL. The results were recorded every 24 h for 5 days. The cultures were incubated at 37 °C. The experiment was repeated three times. […] The minimum inhibitory concentration (MIC) was defined as the minimum concentration of a compound that inhibits the growth of the corresponding test micro-organism. The growth of bacteria as well as the absence of growth due to the bacteriostatic action of a compound was recorded.

[8] = system: Candida albicans ATCC 10231; test: Fungicidal activity, serial dilution technique; type: cell-based; settings: average of three ± SD, - means non-active; for MBC / MIC / MFC: Candida albicans, ATCC10231, Ca; for MBC / MFC: read-out: Minimum Bactericidal and Fungicidal Concentration (MBC, MFC), Ca; for MIC: read-out: Minimum Inhibitory Concentration (MIC), Ca
Procedure: as §1, §3

[9] = system: Escherichia coli ATCC 25922; test: Antimicrobial activity, serial dilution technique in Mueller–Hinton Broth 2; type: cell-based; settings: average of three ± SD, - means non-active
Procedure: as §1, §2

[10] = system: Escherichia coli ATCC 25922; test: as above; type: cell-based; settings: average of three ± SD, - means non-active; for MBC: Escherichia coli, ATCC25922, Ec, read-out: Minimum Bactericidal and Fungicidal Concentration (MBC, MFC), Ec
[11] = Trichophyton mentagrophytes, read-out: Minimum Bactericidal and Fungicidal Concentration (MBC, MFC), Tm

MIC ([1]; Staphylococcus aureus, Sa) [µg/mL] | MIC [3] [µg/mL] | MIC [4] [µg/mL] | MIC ([5]; Staphylococcus aureus, MRSA) [µg/mL] | Minimum Inhibitory Concentration (MIC), MRSA-1 [6] [µg/mL] | Minimum Inhibitory Concentration (MIC), Sa [1] [µg/mL] | Minimum Inhibitory Concentration (MIC), Ef [3] [µg/mL] | Minimum Inhibitory Concentration (MIC), Ec [9] [µg/mL] | Minimum Inhibitory Concentration (MIC), Bc [4] [µg/mL] | Minimum Inhibitory Concentration (MIC), MRSA-2 [5] [µg/mL] | Minimum Inhibitory Concentration (MIC), Pa [2] [µg/mL] | Compound | Minimum Bactericidal and Fungicidal Concentration (MBC, MFC), Tm [7] [µg/mL] | Minimum Inhibitory Concentration (MIC), Tm [7] [µg/mL] | MBC [8] [µg/mL] | Minimum Bactericidal and Fungicidal Concentration (MBC, MFC), Sa [1] [µg/mL] | Minimum Bactericidal and Fungicidal Concentration (MBC, MFC), MRSA-2 ([5]; MRSA-2) [µg/mL] | Minimum Bactericidal and Fungicidal Concentration (MBC, MFC), MRSA-1 ([6]; MRSA-1) [µg/mL] | Minimum Inhibitory Concentration (MIC), Ca [8] [µg/mL] | Minimum Bactericidal and Fungicidal Concentration (MBC, MFC), Ef [3] [µg/mL] | Minimum Bactericidal and Fungicidal Concentration (MBC, MFC), Bc [4] [µg/mL] | other results
0.9 ± 0.07 | 7.8 ± 0.5 | 1.9 ± 0.1 | 0.9 ± 0.08 | 1.9 ± 0.1 | – | – | – | – | – | – | CCCCCCCCCCC[P+](C(C)(C)C)(C(C)(C)C)C(C)(C)C [Compound 11a] | 31.3 ± 2.5 | 31.3 ± 2.5 | 62.5 ± 5.7 | 1.9 ± 0.1 | 7.8 ± 0.6 | 1.9 ± 0.1 | – | – | – | MIC [8]: 62.5 ± 5.5 µg/mL; MBC [3]: 7.8 ± 0.6 µg/mL; MIC ([9]; Escherichia coli, ATCC25922, Ec, read-out: Minimum Inhibitory Concentration (MIC), Ec): 31.3 ± 2.6 µg/mL; MBC [4]: 125 ± 10 µg/mL; MBC [10]: 31.3 ± 2.3 µg/mL
– | – | – | – | 0.3 ± 0.02 | 0.9 ± 0.07 | 7.8 ± 0.6 | 62.5 ± 5.3 | 1.9 ± 0.1 | 0.5 ± 0.04 | – | CCCCCCCCCCC[P+](C(C)(C)C)(C(C)(C)C)C(C)(C)C [Compound 11b] | 125 ± 9 | 125 ± 9 | – | 3.9 ± 0.2 | 0.9 ± 0.07 | 0.5 ± 0.03 | 31.3 ± 2.4 | 15.6 ± 1.2 | 125 ± 10 | Minimum Bactericidal and Fungicidal Concentration (MBC, MFC), Ca [8]: 31.3 ± 2.1 µg/mL; Minimum Bactericidal and Fungicidal Concentration (MBC, MFC), Ec [10]: 62.5 ± 5.4 µg/mL
0.5 ± 0.04 | 0.5 ± 0.03 | 1.9 ± 0.1 | 0.5 ± 0.03 | – | – | – | 0.9 ± 0.07 | – | – | 31.3 ± 2.7 | CCCCCCCCCCCCCCCC[P+](C(C)(C)C)(C(C)(C)C)C(C)(C)C [Compound 16a] | – | – | 3.9 ± 0.3 | – | – | – | 1.9 ± 0.1 | – | – | MBC ([1]; Staphylococcus aureus, Sa, read-out: Minimum Bactericidal and Fungicidal Concentration (MBC, MFC), Sa): 0.5 ± 0.03 µg/mL; MBC ([2]; Pseudomonas aeruginosa, ATCC9027, Pa, read-out: Minimum Bactericidal and Fungicidal Concentration (MBC, MFC), Pa): 125 ± 9 µg/mL; MBC [3]: 0.5 ± 0.03 µg/mL; MBC [4]: 31.3 ± 2.2 µg/mL; MBC [10]: 1.9 ± 0.1 µg/mL; MBC ([5]; Staphylococcus aureus, MRSA, MRSA-2, read-out: Minimum Bactericidal and Fungicidal Concentration (MBC, MFC), MRSA-2): 7.8 ± 0.7 µg/mL; MIC ([6]; Staphylococcus aureus, MRSA): 1.9 ± 0.1 µg/mL; MBC ([6]; Staphylococcus aureus, MRSA, MRSA-1, read-out: Minimum Bactericidal and Fungicidal Concentration (MBC, MFC), MRSA-1): 7.8 ± 0.6 µg/mL

More lines, now with the values behind:

Compound | MIC ([1]; Staphylococcus aureus, Sa) [µg/mL] | MIC [3] [µg/mL] | MIC [4] [µg/mL] | MIC ([5]; Staphylococcus aureus, MRSA) [µg/mL] | Minimum Inhibitory Concentration (MIC), MRSA-1 [6] [µg/mL] | Minimum Inhibitory Concentration (MIC), Sa [1] [µg/mL] | Minimum Inhibitory Concentration (MIC), Ef [3] [µg/mL] | Minimum Inhibitory Concentration (MIC), Ec [9] [µg/mL] | Minimum Inhibitory Concentration (MIC), Bc [4] [µg/mL] | Minimum Inhibitory Concentration (MIC), MRSA-2 [5] [µg/mL] | Minimum Inhibitory Concentration (MIC), Pa [2] [µg/mL] | Minimum Bactericidal and Fungicidal Concentration (MBC, MFC), Tm [7] [µg/mL] | Minimum Inhibitory Concentration (MIC), Tm [7] [µg/mL] | MBC [8] [µg/mL] | Minimum Bactericidal and Fungicidal Concentration (MBC, MFC), Sa [1] [µg/mL] | Minimum Bactericidal and Fungicidal Concentration (MBC, MFC), MRSA-2 ([5]; MRSA-2) [µg/mL] | Minimum Bactericidal and Fungicidal Concentration (MBC, MFC), MRSA-1 ([6]; MRSA-1) [µg/mL] | Minimum Inhibitory Concentration (MIC), Ca [8] [µg/mL] | Minimum Bactericidal and Fungicidal Concentration (MBC, MFC), Ef [3] [µg/mL] | Minimum Bactericidal and Fungicidal Concentration (MBC, MFC), Bc [4] [µg/mL] | other results
O=C(O)c1cn(C2CC2)c2cc(N3CCNCC3)c(F)cc2c1=O [Ciprofloxacin, reference compound] | 0.5 ± 0.03 (≈ 1.51 µM) | 3.9 ± 0.3 (≈ 11.8 µM) | 0.5 ± 0.04 (≈ 1.51 µM) | 0.9 ± 0.07 (≈ 2.72 µM) | – | – | – | – | – | – | – | – | – | – | – | – | – | – | – | – | MIC ([2]; Pseudomonas aeruginosa, ATCC9027, Pa, read-out: Minimum Inhibitory Concentration (MIC), Pa): 0.5 ± 0.03 µg/mL (≈ 1.51 µM); MIC ([6]; Staphylococcus aureus, MRSA): 125 ± 11 µg/mL (≈ 377 µM)
CCCCCCCCCCCC[P+](C(C)(C)C)(C(C)(C)C)C(C)(C)C [Compound 12b] | – | – | – | – | 1.9 ± 0.1 | 0.5 ± 0.03 | 1.9 ± 0.02 | 15.6 ± 1.3 | 1.9 ± 0.01 | 0.5 ± 0.04 | 125 ± 11 | 62.5 ± 5.2 | 31.3 ± 2.4 | – | – | 31.3 ± 2.7 | – | 15.6 ± 1.3 | 15.6 ± 1.3 | 62.5 ± 5.5 | Minimum Bactericidal and Fungicidal Concentration (MBC, MFC), Ca [8]: 15.6 ± 1.3 µg/mL; Minimum Bactericidal and Fungicidal Concentration (MBC, MFC), Pa [2]: 125 ± 10 µg/mL; Minimum Bactericidal and Fungicidal Concentration (MBC, MFC), Ec [10]: 15.6 ± 1.2 µg/mL
CCCCCCCCCCCCCCCCC[P+](C(C)(C)C)(C(C)(C)C)C(C)(C)C [Compound 17b] | – | – | – | – | 1.9 ± 0.1 | 0.5 ± 0.04 | 0.5 ± 0.03 | 15.6 ± 1.2 | 1.9 ± 0.1 | 1.9 ± 0.1 | 7.8 ± 0.6 | 125 ± 11 | 125 ± 10 | – | 0.5 ± 0.04 | 1.9 ± 0.1 | 1.9 ± 0.1 | 1.9 ± 0.1 | 3.9 ± 0.2 | 15.6 ± 1.3 | MFC [8]: 7.8 ± 0.7 µg/mL; Minimum Bactericidal and Fungicidal Concentration (MBC, MFC), Pa [2]: 15.6 ± 1.3 µg/mL
CC(=O)N1CCN(c2ccc(OCC3COC(Cn4ccnc4)(c4ccc(Cl)cc4Cl)O3)cc2)CC1 (centres unmarked) [Ketoconazole, reference compound] | – | – | – | – | – | – | – | – | – | – | – | – | 3.9 ± 0.2 | 3.9 ± 0.3 (≈ 7.34 µM) | – | – | – | 3.9 ± 0.3 | – | – | MBC [7, 11]: 3.9 ± 0.2 µg/mL (≈ 7.34 µM); MFC [7, 11]: 3.9 ± 0.2 µg/mL (≈ 7.34 µM); MIC ([7]; Trichophyton mentagrophytes, read-out: Minimum Inhibitory Concentration (MIC), Tm): 3.9 ± 0.2 µg/mL (≈ 7.34 µM); MFC [8]: 3.9 ± 0.3 µg/mL (≈ 7.34 µM); MIC [8]: 3.9 ± 0.3 µg/mL (≈ 7.34 µM)
